The source of these data is patent publication EP0387830A2, “The anthracycline substances, microorganisms producing the same and a process for preparing the substances” (YAMANOUCHI PHARMACEUTICAL CO. LTD., priority 1989, dated 1990).

One data set has as its system P 388. The data set is described as follows: Cytotoxicity on tumor cells in vitro (trypan blue exclusion, cell growth inhibition). Conditions: tartrates dissolved in saline, 1 x 10⁵ cells/mℓ, 37 °C for 3 days, RPMI-1640 + 5 % fetus calf serum + 5 µM 2-hydroxyethyldisulfide; for IC50: Mus musculus, P388, 72 h, read-out: IC₅₀ P388. The data set is classed as cell-based. How it is done: (§1) To each 1 mℓ of L 1210* and P 388** culture medium in a concentration of 1 x 10⁵ cells/mℓ, 4 µℓ of each solution of the tartrates of the anthracycline compounds according to the present invention which was dissolved in saline in different concentrations was added respectively and incubated at 37 °C for 3 days in a CO₂ incubator. Then, numbers of surviving cells were counted by trypan blue exclusion. The cytotoxic activity was determined by calculating the cell growth inhibitory ratio of the numbers of surviving cells to numbers of cells of a control to which no compound was added in the different concentrations and by plotting them on a graph. Note : Medium used: * : RPMI-1640 + 10 % new born calf serum **: RPMI-1640 + 5 % fetus calf serum + 5 µM 2-hydroxyethyldisulfide

In data set [1] the test system is P388 adriamycin resistant cell. The description is as above. The data set is classed as cell-based. The following applies: Mus musculus, P388, 72 h, tartrates dissolved in saline; 37 °C for 3 days; read-out: IC₅₀ P388 adriamycin resistant cell. How it is done:
as §1

The nature of data set [2]: Solubility in solvents (physicochemical properties).
In another data set the test system is L 1210. In words: Cytotoxicity on tumor cells in vitro (trypan blue exclusion, cell growth inhibition). The data set is classed as cell-based. Conditions: tartrates dissolved in saline, 1 x 10⁵ cells/mℓ, 37 °C for 3 days, RPMI-1640 + 10 % new born calf serum. The protocol:
as §1

The next data set has as its system P-388 tumor cells. In words: Antitumor activity to P388 on animal (prolongation of life). The following applies: for Median survival days: BDFI/SLC male mice, control 13.0; for T/C: ratio of median survival days to control; for Survival rate (after 22 days): survivors - animals in group.

In brackets after ≈: the same amount, converted by molar mass. Some results are limits rather than exact numbers.

For `COc1cccc2c1C(=O)c1c(cc3c(c1O)C(OC1OC(C)C(OC)C(O)C1OC)CC(C)(OC(C)=O)C3OC1OC(C)C(N(C)C)C(C)(O)C1O)C2=O` (stereo not drawn) [YL-01641P-C₁], the IC50 in the data set on P 388 stood at 0.18 µg/mL; in data set [1] it was 0.33 µg/mL (≈ 0.426 µM). The Solubility in solvents result in data set [2] (in hexane) is on record as “insoluble”; in data set [2] (in methanol, ethanol, acetone, ethylacetate, benzene, toluene and chloroform), “soluble”; in data set [2] (in water), “difficult to be dissolved”.

As for `COc1cccc2c1C(=O)c1c(O)c3c(c(O)c1C2=O)C[C@@](O)(C(=O)CO)C[C@@H]3O[C@H]1C[C@H](N)[C@H](O)[C@H](C)O1` [adriamycin], the IC50 worked out at 0.03 µg/mL in the data set with P 388 and 0.087 µg/mL in the data set on L 1210 (Mus musculus, L1210, 72 h, read-out: IC₅₀ L1210). Besides, the “IC₅₀ P388” value in the data set on P 388 was determined as 0.023 µg/mL. For the same compound, the “IC₅₀ L1210” value in the data set with L 1210 turned out to be 0.090 µg/mL.

Consider `CO[C@@]12[C@H](COC(N)=O)C3=C(C(=O)C(C)=C(N)C3=O)N1C[C@@H]1N[C@@H]12` [mitomycin C], for which, in the data set on P-388 tumor cells (0.50 × 5 mg/kg), the Median survival days is 22.0 days, the T/C is reported as 169% and the “Survival rate (after 22 days)” value is given as 2 - 8. Also, in the data set with P-388 tumor cells (1.0 × 5 mg/kg), the Median survival days was greater than 22.0 days, the T/C is on record as greater than 169% and the “Survival rate (after 22 days)” value was 8 - 8.

The term T/C denotes the result in the treated group divided by that in the control group, in per cent.
